The values below come from patent EP4782450A1, “NOVEL SKELETAL DERIVATIVE EFFECTIVE FOR HER2 MUTATION, AND PHARMACEUTICAL COMPOSITION COMPRISING SAME” (Hanmi Pharm. Co., Ltd., priority 2023, dated 2025).

Like-named read-outs stand apart in the source and are kept apart here.

Assay [1] has as its system Ba/F3 HER2 A775insYVMA. Description: Growth inhibition of Ba/F3 cells engineered to overexpress HER2 A775_G776insYVMA (CellTiter-Glo luminescence). In kind it is cell-based. The conditions noted are these: concentrations 1000 to 0.32 nM, read-out: Ba/F3 HER2^YVMA GI50 class. The gist of the method: (§1)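 Ba/F3 cells overexpressing HER2 A775_G776insYVMA (1000–0.32 nM) or wild-type EGFR (10000–8 nM) treated 72 h at 37°C in RPMI/10% FBS. Viability by CellTiter-Glo luminescence; GI50 by nonlinear regression with untreated growth set at 100%.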
Background: In ATP-based viability assays light output follows the ATP content of the culture.

Assay [2] deals with wild-type EGFR overexpressing Ba/F3 cells. As to the kind of experiment: Growth inhibition of Ba/F3 cells engineered to overexpress wild-type EGFR (CellTiter-Glo luminescence). The conditions noted are these: concentrations 10000 to 8 nM, read-out: Ba/F3 EGFR^WT GI50 class. In kind it is cell-based. An outline of the steps: as §1

As for `C=CC(=O)N1CCC[C@@H]1C#Cc1ccc2ncnc(Nc3ccc(Oc4ccn5ncnc5c4)c(C)c3)c2n1` [Example 80, (R)-1-(2-((4-((4-([1,2,4]triazolo[1,5-a]pyridin-7-yloxy)-3-methylphenyl)amino)pyrido[3,2-d]pyrimidin-6-yl)ethynyl)pyrrolidin-1-yl)prop-2-en-1-one], the GI50 in assay [1] (Mus musculus, BaF3, 72 hours) was under 100 nM; in assay [2] (Mus musculus, BaF3, 72 hours) it was 100 to 1000 nM.

Take `C=CC(=O)N1CCC[C@H]1C#Cc1ccc2ncnc(Nc3ccc(Oc4ccn5ncnc5c4)c(C)c3)c2n1` [Example 81, (S)-1-(2-((4-((4-([1,2,4]triazolo[1,5-a]pyridin-7-yloxy)-3-methylphenyl)amino)pyrido[3,2-d]pyrimidin-6-yl)ethynyl)pyrrolidin-1-yl)prop-2-en-1-one]: the GI50 in assay [1] (Mus musculus, BaF3, 72 hours) is under 100 nM; in assay [2] (Mus musculus, BaF3, 72 hours), 100 to 1000 nM.

For `C=CC(=O)N1CCCC[C@@H]1C#Cc1ccc2ncnc(Nc3ccc(Oc4ccn5ncnc5c4)c(C)c3)c2n1` [Example 82, (R)-1-(2-((4-((4-([1,2,4]triazolo[1,5-a]pyridin-7-yloxy)-3-methylphenyl)amino)pyrido[3,2-d]pyrimidin-6-yl)ethynyl)piperidin-1-yl)prop-2-en-1-one], the GI50 in assay [1] (Mus musculus, BaF3, 72 hours) was under 100 nM; in assay [2] (Mus musculus, BaF3, 72 hours) it was 100 to 1000 nM.

Turning to `C=CC(=O)N1CCC[C@@H]1C#Cc1ncc2ncnc(Nc3ccc(Oc4ccn5ncnc5c4)c(C)c3)c2n1` [Example 83, (R)-1-(2-((8-((4-([1,2,4]triazolo[1,5-a]pyridin-7-yloxy)-3-methylphenyl)amino)pyrimido[5,4-d]pyrimidin-2-yl)ethynyl)pyrrolidin-1-yl)prop-2-en-1-one], the GI50 in assay [1] (Mus musculus, BaF3, 72 hours) is under 100 nM; in assay [2] (Mus musculus, BaF3, 72 hours), under 100 nM.

With `C=CC(=O)N1CCC[C@H]1C#Cc1ncc2ncnc(Nc3ccc(Oc4ccn5ncnc5c4)c(C)c3)c2n1` [Example 84, (S)-1-(2-((8-((4-([1,2,4]triazolo[1,5-a]pyridin-7-yloxy)-3-methylphenyl)amino)pyrimido[5,4-d]pyrimidin-2-yl)ethynyl)pyrrolidin-1-yl)prop-2-en-1-one], the GI50 in assay [1] (Mus musculus, BaF3, 72 hours) was under 100 nM; in assay [2] (Mus musculus, BaF3, 72 hours), 100 to 1000 nM.

Regarding `C=CC(=O)N1CCC[C@@H]1C#Cc1ccc2ncnc(Nc3ccc(Oc4ccc5c(c4)ncn5C)c(C)c3)c2c1` [Example 85, (R)-1-(2-((4-((3-methyl-4-((1-methyl-1H-benzo[d]imidazol-5-yl)oxy)phenyl)amino)quinazolin-6-yl)ethynyl)pyrrolidin-1-yl)prop-2-en-1-one], the GI50 was under 100 nM in assay [1] (Mus musculus, BaF3, 72 hours) and 100 to 1000 nM in assay [2] (Mus musculus, BaF3, 72 hours).

With `C=CC(=O)N1CCC[C@@H]1C#Cc1ccc2ncnc(Nc3ccc(OC4=CC5N=CN(C)C5C=C4)c(C)c3)c2n1` (stereo partly drawn) [Example 86, 1-((2R)-2-((4-((3-methyl-4-((1-methyl-3a,7a-dihydro-1H-benzo[d]imidazol-5-yl)oxy)phenyl)amino)pyrido[3,2-d]pyrimidin-6-yl)ethynyl)pyrrolidin-1-yl)prop-2-en-1-one], the GI50 in assay [1] (Mus musculus, BaF3, 72 hours) is under 100 nM; in assay [2] (Mus musculus, BaF3, 72 hours) it was 1000 to 5000 nM.

Consider `C=CC(=O)N1CCCC[C@@H]1C#Cc1ccc2ncnc(Nc3ccc(Oc4ccc5c(c4)ncn5C)c(C)c3)c2n1` [Example 88, (R)-1-(2-((4-((3-methyl-4-((1-methyl-1H-benzo[d]imidazol-5-yl)oxy)phenyl)amino)pyrido[3,2-d]pyrimidin-6-yl)ethynyl)piperidin-1-yl)prop-2-en-1-one], for which the GI50 in assay [1] (Mus musculus, BaF3, 72 hours) was under 100 nM; in assay [2] (Mus musculus, BaF3, 72 hours) it was 1000 to 5000 nM.

On to `C=CC(=O)N1CCCC[C@H]1C#Cc1ccc2ncnc(Nc3ccc(Oc4ccc5c(c4)ncn5C)c(C)c3)c2n1` [Example 89, (S)-1-(2-((4-((3-methyl-4-((1-methyl-1H-benzo[d]imidazol-5-yl)oxy)phenyl)amino)pyrido[3,2-d]pyrimidin-6-yl)ethynyl)piperidin-1-yl)prop-2-en-1-one], for which the GI50 in assay [1] (Mus musculus, BaF3, 72 hours) was under 100 nM; in assay [2] (Mus musculus, BaF3, 72 hours) it was 1000 to 5000 nM.

For the compound `C=CC(=O)N1CCC[C@@H]1C#Cc1ncc2ncnc(Nc3ccc(OC4=CC5N=CN(C)C5C=C4)c(C)c3)c2n1` (stereo partly drawn) [Example 90, 1-((2R)-2-((8-((3-methyl-4-((1-methyl-3a,7a-dihydro-1H-benzo[d]imidazol-5-yl)oxy)phenyl)amino)pyrimido[5,4-d]pyrimidin-2-yl)ethynyl)pyrrolidin-1-yl)prop-2-en-1-one], the GI50 in assay [1] (Mus musculus, BaF3, 72 hours) was under 100 nM; in assay [2] (Mus musculus, BaF3, 72 hours), under 100 nM.

Consider `C=CC(=O)N1CCCC[C@@H]1C#Cc1ncc2ncnc(Nc3ccc(Oc4ccc5c(c4)ncn5C)c(C)c3)c2n1` [Example 91, (R)-1-(2-((8-((3-methyl-4-((1-methyl-1H-benzo[d]imidazol-5-yl)oxy)phenyl)amino)pyrimido[5,4-d]pyrimidin-2-yl)ethynyl)piperidin-1-yl)prop-2-en-1-one], for which the GI50 in assay [1] (Mus musculus, BaF3, 72 hours) was in the range of 100 to 1000 nM; in assay [2] (Mus musculus, BaF3, 72 hours), 100 to 1000 nM.

`C=CC(=O)N1CCCC[C@H]1C#Cc1ncc2ncnc(Nc3ccc(Oc4ccc5c(c4)ncn5C)c(C)c3)c2n1` [Example 92, (S)-1-(2-((8-((3-methyl-4-((1-methyl-1H-benzo[d]imidazol-5-yl)oxy)phenyl)amino)pyrimido[5,4-d]pyrimidin-2-yl)ethynyl)piperidin-1-yl)prop-2-en-1-one]: the GI50 in assay [1] (Mus musculus, BaF3, 72 hours) was 100 to 1000 nM; in assay [2] (Mus musculus, BaF3, 72 hours), 100 to 1000 nM.

Turning to “(S)-1-(2-((4-((3-methyl-4-((1-methyl-1H-benzo[d]imidazol-5-yl)oxy)phenyl)amino)pyrido[3,2-d]pyrimidin-6-yl)ethynyl)pyrrolidin-1-yl)prop-2-en-1-one [Example 87]”, the GI50 is under 100 nM in assay [1] (72 hours) and 1000 to 5000 nM in assay [2] (72 hours).

On to “N-(2-((4-((4-([1,2,4]triazolo[1,5-a]pyridin-7-yloxy)-3-methylphenyl)amino)pyrido[3,2-d]pyrimidin-6-yl)amino)ethyl)-N-methylacrylamide [Example 11]”, for which the GI50 in assay [1] (72 hours) was in the range of 100 to 1000 nM; in assay [2] (72 hours), 1000 to 5000 nM.

Take “N-(2-((8-((4-([1,2,4]triazolo[1,5-a]pyridin-7-yloxy)-3-methylphenyl)amino)pyrimido[5,4-d]pyrimidin-2-yl)oxy)ethyl)-N-methylacrylamide [Example 4]”: the GI50 in assay [1] (72 hours) and in assay [2] (72 hours) was 1000 to 5000 nM throughout.

For “N-methyl-N-(2-((8-((3-methyl-4-((1-methyl-1H-benzo[d]imidazol-5-yl)oxy)phenyl)amino)pyrimido[5,4-d]pyrimidin-2-yl)amino)ethyl)acrylamide [Example 16]”, the results for the GI50 in assay [1] (72 hours) and in assay [2] (72 hours) were 100 to 1000 nM and over 5000 nM, respectively.
